Literature values as cited in patent US20220387384A1, “METHODS OF TREATING LSD1-RELATED DISEASES AND DISORDERS WITH LSD1 INHIBITORS” (Taiho Pharmaceutical Co., Ltd., priority 2019, published 2022).

Details: i.e. about 3 days; NPL 11

- half-life in pharmacokinetics: ~71 h
Structure (SMILES): COc1ccc(-c2c(-c3ccc(C#N)c(F)c3)nc(N3CCC(N)CC3)n(C)c2=O)cc1F [CC-90011]
